Source: paper PMC3426363 (Pharmaceutical research, 2011)
Blank lines part the entries; values can stand above or below the compound they belong to.

Experiments:
UGT1A3 [1] = target: T1, UGT1A3 (Homo sapiens, UniProt P35503); details: published observation; cited from earlier work
T1 sequence (P35503 29-534): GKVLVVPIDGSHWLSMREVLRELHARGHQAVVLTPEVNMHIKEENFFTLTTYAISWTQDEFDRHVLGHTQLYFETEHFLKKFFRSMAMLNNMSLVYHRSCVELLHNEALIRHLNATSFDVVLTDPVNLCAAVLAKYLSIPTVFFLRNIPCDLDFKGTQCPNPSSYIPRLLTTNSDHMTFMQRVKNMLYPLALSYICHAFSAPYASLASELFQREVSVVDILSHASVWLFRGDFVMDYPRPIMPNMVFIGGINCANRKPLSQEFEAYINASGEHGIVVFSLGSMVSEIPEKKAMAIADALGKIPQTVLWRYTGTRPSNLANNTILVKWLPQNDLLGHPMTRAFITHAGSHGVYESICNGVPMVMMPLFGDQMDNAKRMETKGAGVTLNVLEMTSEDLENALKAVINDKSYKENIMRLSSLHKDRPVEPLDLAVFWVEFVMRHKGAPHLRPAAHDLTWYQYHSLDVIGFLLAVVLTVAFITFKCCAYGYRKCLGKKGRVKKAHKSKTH

UGT1A10 = target: T2, UGT1A10 (Homo sapiens, UniProt Q9HAW8); assay: UGT1A10 glucuronidation kinetics of flavonols; assay type: in vitro ADME; details: formation of 3-O-glucuronide, substrate inhibition constant
T2 sequence (Q9HAW8 26-530): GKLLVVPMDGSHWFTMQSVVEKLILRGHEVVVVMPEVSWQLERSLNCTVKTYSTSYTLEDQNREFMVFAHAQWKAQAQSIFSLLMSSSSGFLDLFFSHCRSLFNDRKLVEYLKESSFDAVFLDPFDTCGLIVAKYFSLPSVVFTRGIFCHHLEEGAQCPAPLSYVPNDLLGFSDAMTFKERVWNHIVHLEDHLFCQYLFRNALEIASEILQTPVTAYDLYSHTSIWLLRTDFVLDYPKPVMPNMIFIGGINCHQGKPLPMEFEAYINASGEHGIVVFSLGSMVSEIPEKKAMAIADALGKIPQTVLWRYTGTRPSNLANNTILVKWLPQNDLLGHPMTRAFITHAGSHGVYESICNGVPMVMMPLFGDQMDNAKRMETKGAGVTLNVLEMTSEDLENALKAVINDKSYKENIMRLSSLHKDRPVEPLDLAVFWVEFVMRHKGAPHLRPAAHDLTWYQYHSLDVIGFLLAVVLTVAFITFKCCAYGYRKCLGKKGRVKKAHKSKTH

UGT1A1 [2] = target: T3, UGT1A1 (Homo sapiens, UniProt P22309); assay: UGT1A1 glucuronidation kinetics of flavonols; assay type: in vitro ADME; details: for Ks: substrate inhibition constant
T3 sequence (P22309 26-533): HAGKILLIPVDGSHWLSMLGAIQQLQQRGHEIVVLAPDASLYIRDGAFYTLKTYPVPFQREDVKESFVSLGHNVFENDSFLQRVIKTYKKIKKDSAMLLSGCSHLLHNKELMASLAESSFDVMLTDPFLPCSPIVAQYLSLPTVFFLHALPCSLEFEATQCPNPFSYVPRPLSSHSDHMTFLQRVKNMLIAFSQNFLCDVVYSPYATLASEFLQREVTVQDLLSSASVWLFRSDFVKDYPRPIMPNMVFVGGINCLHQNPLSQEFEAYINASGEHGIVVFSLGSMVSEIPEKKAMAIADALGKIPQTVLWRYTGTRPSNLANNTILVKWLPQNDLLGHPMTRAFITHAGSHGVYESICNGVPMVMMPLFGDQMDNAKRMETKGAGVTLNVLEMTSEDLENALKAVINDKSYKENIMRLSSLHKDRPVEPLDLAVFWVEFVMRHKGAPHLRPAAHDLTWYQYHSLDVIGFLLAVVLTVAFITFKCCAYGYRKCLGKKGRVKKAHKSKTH

UGT1A3 [3] = target: T1, UGT1A3; assay: UGT1A3 glucuronidation kinetics of flavonols; assay type: in vitro ADME; details: substrate inhibition constant
UGT1A9 [4] = target: T4, UGT1A9 (Homo sapiens, UniProt O60656); assay: UGT1A9 glucuronidation kinetics of flavonols; assay type: in vitro ADME
T4 sequence (O60656 26-530): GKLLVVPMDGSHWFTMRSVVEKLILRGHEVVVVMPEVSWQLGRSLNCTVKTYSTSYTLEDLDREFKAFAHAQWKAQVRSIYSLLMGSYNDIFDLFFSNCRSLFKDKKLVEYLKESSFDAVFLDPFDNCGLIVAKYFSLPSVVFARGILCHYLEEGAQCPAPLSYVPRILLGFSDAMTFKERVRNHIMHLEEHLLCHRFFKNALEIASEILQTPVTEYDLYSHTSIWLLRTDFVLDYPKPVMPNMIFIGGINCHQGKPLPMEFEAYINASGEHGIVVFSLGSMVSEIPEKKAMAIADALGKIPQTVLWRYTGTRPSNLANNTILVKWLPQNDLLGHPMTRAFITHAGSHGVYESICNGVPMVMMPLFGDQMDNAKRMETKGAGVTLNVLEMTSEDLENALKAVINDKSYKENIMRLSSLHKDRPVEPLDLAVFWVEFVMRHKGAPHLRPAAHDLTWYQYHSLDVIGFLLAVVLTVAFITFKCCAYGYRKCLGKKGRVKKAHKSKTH

UGT1A8 = target: T5, UGT1A8 (Homo sapiens, UniProt Q9HAW9); assay: UGT1A8 glucuronidation kinetics of flavonols; assay type: in vitro ADME; details: formation of 3-O-glucuronide
T5 sequence (Q9HAW9 26-530): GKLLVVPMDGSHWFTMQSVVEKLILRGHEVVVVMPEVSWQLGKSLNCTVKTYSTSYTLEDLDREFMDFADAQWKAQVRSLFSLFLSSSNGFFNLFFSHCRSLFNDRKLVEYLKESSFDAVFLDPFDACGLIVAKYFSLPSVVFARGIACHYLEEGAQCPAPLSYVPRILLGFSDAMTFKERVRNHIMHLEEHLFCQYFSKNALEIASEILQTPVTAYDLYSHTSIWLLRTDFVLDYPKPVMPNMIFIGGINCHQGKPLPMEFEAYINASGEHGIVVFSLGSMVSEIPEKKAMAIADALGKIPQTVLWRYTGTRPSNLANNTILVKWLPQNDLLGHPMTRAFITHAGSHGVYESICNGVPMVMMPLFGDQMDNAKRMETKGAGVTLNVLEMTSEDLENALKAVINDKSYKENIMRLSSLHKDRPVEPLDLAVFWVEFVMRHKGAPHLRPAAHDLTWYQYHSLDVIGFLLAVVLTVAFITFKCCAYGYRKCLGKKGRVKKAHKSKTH

UGT1A7 = target: T6, UGT1A7 (Homo sapiens, UniProt Q9HAW7); assay: UGT1A7 glucuronidation kinetics of flavonols; assay type: in vitro ADME; details: formation of 3-O-glucuronide, substrate inhibition constant
T6 sequence (Q9HAW7 26-530): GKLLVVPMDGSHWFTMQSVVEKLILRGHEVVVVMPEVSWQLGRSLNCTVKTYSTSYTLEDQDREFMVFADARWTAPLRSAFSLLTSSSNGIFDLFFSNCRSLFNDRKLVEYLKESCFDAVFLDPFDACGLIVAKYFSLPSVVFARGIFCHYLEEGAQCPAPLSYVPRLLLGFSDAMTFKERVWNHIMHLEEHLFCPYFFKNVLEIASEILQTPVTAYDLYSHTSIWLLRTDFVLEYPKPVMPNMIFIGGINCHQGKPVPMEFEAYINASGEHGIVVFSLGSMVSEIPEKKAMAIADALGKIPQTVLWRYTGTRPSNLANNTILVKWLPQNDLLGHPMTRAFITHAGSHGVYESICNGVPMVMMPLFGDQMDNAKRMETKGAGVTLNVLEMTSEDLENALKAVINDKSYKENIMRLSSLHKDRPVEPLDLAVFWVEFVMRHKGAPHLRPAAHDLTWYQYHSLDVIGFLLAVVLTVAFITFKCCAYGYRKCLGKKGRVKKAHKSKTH

UGT1A9 [5] = target: T4, UGT1A9; details: ref 32 (Chen et al.); cited from earlier work
UGT1A1 [6] = target: T3, UGT1A1; assay: Inhibition of UGT1A1-mediated glucuronidation of 3-hydroflavone; assay type: biochemical; details: 40 µM inhibitor; data not shown

Structure (SMILES): COc1ccc(C2CC(=O)c3c(O)cc(O)cc3O2)cc1O (centres unmarked) [hesperetin, 4'-methoxy-3',5,7-trihydroxyflavanone]
- glucuronide generated (UGT1A3 [1]): only 7-O-glucuronide was generated

Structure (SMILES): O=c1c(O)c(-c2ccccc2)oc2cc(O)cc(O)c12 [3,5,7THF, 3,5,7-trihydroxyflavone]
- Ks (UGT1A10): 73.48 ± 17.82 µM
- Vmax (UGT1A1 [2]; formation of 3-O-glucuronide): 0.82 nmol/mg/min
- Ks (UGT1A1 [2]; formation of 3-O-glucuronide): 2.64 ± 0.89 µM
- Vmax (UGT1A1 [2]; formation of 7-O-glucuronide): 4.59 nmol/mg/min
- Ks (UGT1A1 [2]; formation of 7-O-glucuronide): 1.22 ± 0.19 µM
- Ks (UGT1A3 [3]; formation of 3-O-glucuronide): 17.86 ± 6.33 µM
- Ks (UGT1A3 [3]; formation of 7-O-glucuronide): 9.95 ± 9.16 µM
- Km (UGT1A9 [4]; formation of 3-O-glucuronide): 0.68 ± 0.16 µM
- Vmax (UGT1A9 [4]; formation of 3-O-glucuronide): 7.41 ± 0.89 nmol/mg/min
- Ks (UGT1A9 [4]; formation of 3-O-glucuronide, substrate inhibition constant): 7.43 ± 2.12 µM
- Km (UGT1A9 [4]; formation of 7-O-glucuronide): 0.54 ± 0.08 µM
- Vmax (UGT1A9 [4]; formation of 7-O-glucuronide): 2.56 ± 0.10 nmol/mg/min
- Vmax (UGT1A8): 3.89 nmol/mg/min
- Ks (UGT1A8; substrate inhibition constant): 37.28 ± 10.12 µM
- Ks (UGT1A7): 55.75 ± 7.27 µM

Structure (SMILES): O=c1c(O)c(-c2ccc(O)c(O)c2)oc2cc(O)cc(O)c12 [quercetin, 3,5,7,3’,4’-pentahydroxyflavone]
- regioselectivity of glucuronidation (UGT1A9 [5]): 3-O-glucuronidation was most efficient with the highest CLint value

- inhibition of glucuronidation of 3-hydroflavone by UGT1A1 (UGT1A1 [6]): completely inhibited
- Ks (UGT1A1 [2]; formation of 3-O-glucuronide): 5.41 ± 0.93 µM
- Ks (UGT1A1 [2]; formation of 7-O-glucuronide): 3.53 ± 0.86 µM
Structure (SMILES): O=c1c(O)c(-c2ccc(O)cc2)oc2cc(O)ccc12 [3,7,4’THF, 3,7,4’-tryhydroxyflavone]
